According to PMC4865535, “Effect of carbamazepine on dolutegravir pharmacokinetics and dosing recommendation” (European Journal of Clinical Pharmacology, 2016):
Several values for one entry are separate records, joined by “and”; a condition that tells them apart may be missing. Equal values may be shown once. Read-outs that look alike come from different tables or passages of the source.

Assays:
[1] = Safety evaluations (adverse events, laboratory tests) in the crossover study; assay type: in vivo, human; settings: for Subjects who experienced at least one AE: by treatment period; for Drug-related adverse events: ALT increased / Drug-related adverse events: Any event / Drug-related adverse events: Asthenia / Drug-related adverse events: Cognitive disorder / Drug-related adverse events: Drug reaction with eosinophilia and systemic symptoms / Drug-related adverse events: Fatigue / Drug-related adverse events: Headache / Drug-related adverse events: Hyponatremia / Drug-related adverse events: Leukopenia / Drug-related adverse events: Lymphopenia / Drug-related adverse events: Nausea / Drug-related adverse events: Pain in extremity / Drug-related adverse events: Photosensitivity reaction / Drug-related adverse events: Pyrexia / Drug-related adverse events: Rash maculopapular / Drug-related adverse events: Thirst / Drug-related adverse events: Thrombocytopenia: DTG alone n = 16, CBZ alone n = 16, DTG + CBZ n = 14
Procedure: Safety evaluations included the monitoring of adverse events (AEs), physical examinations, clinical chemistry laboratory tests, vital signs, and electrocardiograms. Additionally, assessment of Columbia suicide severity rating scale scores was performed throughout the study, because CBZ exposure (along with exposure to several other AEDs) has been associated with increased risk of suicidal ideation and depression.

[2] = design: method as in ref 11 = [11]; 11. Tegretol ® (carbamazepine) [package insert]. East Hanover: Novartis; 2014; settings: cited from earlier work
[3] = Steady-state plasma DTG pharmacokinetics with and without CBZ (phase I open-label fixed-sequence crossover study); assay type: in vivo, human; settings: for half-life: read-out: t1/2 (terminal elimination half-life) of DTG, geometric mean (CV%) (converted)
Procedure: This was a phase I, single-site, open-label, fixed-sequence, crossover study with three treatment periods to evaluate the effect of an oral extended-release formulation of CBZ on the steady-state PK of orally administered DTG in 16 healthy subjects. The study was conducted in accordance with the principles of the Declaration of Helsinki. A written informed consent was obtained from all subjects, and the protocol was approved by the institutional review board of the study site. The trial was registered at ClinicalTrials.gov (NCT01967771; protocol number: 200901). During period 1, subjects received DTG 50 mg once daily as a single agent for days 1 to 5. During period 2, subjects received CBZ alone and the dose was escalated: 100 mg twice daily for days 1 to 3, 200 mg twice daily for days 4 to 6, and 300 mg twice daily for days 7 to 16. During period 3, DTG 50 mg once daily was co-administered with CBZ 300 mg twice daily for days 1 to 5. There was no washout between treatment periods. As CBZ is recommended to be given with food per product information, all doses in the testing unit, including those on PK collection days, were administered orally in the morning 30 min after the start of the moderate-fat meal, and subjects were asked to do the same when dosing outside the unit. Subjects were housed at the clinical research unit from period 1, day 1, until the morning of period 2, day 8, as well as from period 2, day 16, through period 3, day 6. Phone call reminders and pill counts were employed when subjects self-administered CBZ as outpatients during period 2, days 8 to 16. […] Plasma samples were analyzed for DTG by PPD, Inc. (Middleton, WI) using a validated analytical method based on protein precipitation with acetonitrile containing the stable isotope-labeled internal standard (GSK1349572-d7-^15N), followed by high-performance liquid chromatography/tandem mass spectrometry analysis. The lower limit of quantification for DTG in plasma was 20 ng/mL, and the upper limit of quantification was 20,000 ng/mL. Precision and accuracy were evaluated by replicate analyses of human plasma quality control samples prepared at five concentrations: 60, 160, 640, 2400, and 15,200 ng/mL. Precision, measured as the percent coefficient of variation, ranged from 3.0 to 5.9 % across the quality control range. […] Both were within acceptance standards of 15 %. A non-compartmental PK analysis of the DTG concentration-time data was conducted by Phast Clinical Data, Inc. (Raleigh, NC). Pharmacokinetic analyses of plasma DTG concentration-time data were analyzed using Model 200 (for extravascular administration) of Phoenix WinNonlin version 6.3 (Pharsight Corporation, St. Louis, MO). Plasma PK parameters for DTG were calculated using actual elapsed times from dosing. The individual PK parameters that were determined included area under the curve from time zero to the end of the dosing interval (AUC(0-τ)), maximum observed plasma concentration (Cmax), plasma concentration at the end of the dosing interval (Cτ), oral clearance, and terminal half-life. This study was designed to estimate the magnitude of drug-interaction effect of CBZ on the PK parameters of DTG. No formal hypothesis was tested. Instead, an estimation approach was used to evaluate the effect of CBZ on DTG PK. Pharmacokinetic parameters were log-transformed and analyzed by analysis of variance to determine the point estimate and associated 90 % confidence intervals for the difference between test treatment (DTG + CBZ) and reference treatment (DTG alone). These values were then back-transformed to calculate the point and interval estimates for test-to-reference treatment ratios on the original scale. Geometric least-squares mean ratios and 90 % confidence intervals were generated by the mixed-effect model for within-subject treatment comparisons.

[4] = design: method as in PMID 25146692, PMID 23075918; settings: DTG co-administered with tipranavir/ritonavir, efavirenz, and rifampin; cited from earlier work
[5] = test system: cytochrome P450 (CYP) 3A4; design: method as in PMID 23132334; settings: minor component; primarily metabolized by UGT1A1; cited from earlier work
[6] = test system: P-glycoprotein (P-gp); design: method as in PMID 23132334; settings: cited from earlier work
[7] = test system: CYP isozymes; design: method as in PMID 23132334; settings: in vitro; cited from earlier work
[8] = test system: UGT1A1; design: method as in PMID 23132334; settings: in vitro; cited from earlier work
[9] = test system: UGT2B7; design: method as in PMID 23132334; settings: in vitro; cited from earlier work
[10] = test system: P-gp; design: method as in PMID 23132334; settings: in vitro; cited from earlier work
[11] = test system: breast cancer resistance protein; design: method as in PMID 23132334; settings: in vitro; cited from earlier work
[12] = test system: OATP1B1; design: method as in PMID 23132334; settings: in vitro; cited from earlier work
[13] = test system: OATP1B3; design: method as in PMID 23132334; settings: in vitro; cited from earlier work
[14] = test system: MRP2; design: method as in PMID 23132334; settings: in vitro; cited from earlier work
[15] = test system: CYP1A2; design: method as in PMID 23132334; settings: in vitro; cited from earlier work
[16] = test system: CYP2B6; design: method as in PMID 23132334; settings: in vitro; cited from earlier work
[17] = test system: CYP3A4; design: method as in PMID 23132334; settings: in vitro; cited from earlier work
[18] = test system: CYP3A4; design: method as in ref 1 = [1]; 1. Tivicay ® (dolutegravir) [package insert]. Research Triangle Park: ViiV Healthcare; 2014; settings: midazolam as probe substrate for CYP3A4, healthy subjects; cited from earlier work
[19] = DTG 50 mg once daily alone, day 5 of period 1, n = 16
[20] = DTG co-administered with CBZ vs DTG alone
[21] = DTG co-administered with CBZ, 14 subjects with PK results in both periods

## NC(=O)N1c2ccccc2C=Cc2ccccc21 [CBZ, Carbamazepine]
[1]; healthy subjects
  Subjects who experienced at least one AE: six
  Drug-related adverse events: ALT increased: 1 (6) n (%)
  Drug-related adverse events: Any event: 6 (38) n (%)
  Drug-related adverse events: Asthenia: 1 (6) n (%)
  Drug-related adverse events: Cognitive disorder: 1 (6) n (%)
  Drug-related adverse events: Drug reaction with eosinophilia and systemic symptoms: 1 (6) n (%)
  Drug-related adverse events: Fatigue: 0 n (%)
  Drug-related adverse events: Headache: 2 (13) n (%)
  Drug-related adverse events: Hyponatremia: 1 (6) n (%)
  Drug-related adverse events: Leukopenia: 1 (6) n (%)
  Drug-related adverse events: Lymphopenia: 1 (6) n (%)
  Drug-related adverse events: Nausea: 1 (6) n (%)
  Drug-related adverse events: Pain in extremity: 1 (6) n (%)
  Drug-related adverse events: Photosensitivity reaction: 0 n (%)
  Drug-related adverse events: Pyrexia: 1 (6) n (%)
  Drug-related adverse events: Rash maculopapular: 1 (6) n (%)
  Drug-related adverse events: Thirst: 1 (6) n (%)
  Drug-related adverse events: Thrombocytopenia: 2 (13) n (%)
[1]; one subject with suspected grade 2 hypersensitivity syndrome on 300 mg CBZ twice daily, period 2, baseline 8800 cells/mm^3
  White blood cell count (decrease): 3800 cells/mm^3
[1]; period 2 (CBZ alone)
  Subjects permanently discontinued because of AEs: Two
[1]; same subject on 300 mg CBZ twice daily, 159,000 3 days before
  Platelet count (low): 78,000 cells/mm^3
[1]; same subject on 300 mg CBZ twice daily, grade 2
  ALT level (high): 151 IU/L
[2]; following chronic dosing
  half-life: 12 to 17 h
[2]; following single dosing
  half-life: 25 to 65 h

## C[C@@H]1CCO[C@H]2Cn3cc(C(=O)NCc4ccc(F)cc4F)c(=O)c(O)c3C(=O)N12 [DTG, Dolutegravir]
[3]; [19]
  CL/F (oral clearance) of DTG, geometric mean (CV%): 0.929 (21.4) L/h
  Cτ of plasma DTG, geometric mean (CV%): 1.20 (39.1) μg/mL
[3]; [20]
  Increase of dolutegravir clearance: 95%
  Reduction of geometric mean AUC(0-τ) of DTG: 49%
  Reduction of geometric mean Cmax of DTG: 33%
  Reduction of geometric mean Cτ of DTG: 73% and ~ 73%
[3]; [21]
  Reduction in AUC(0-τ) on an individual subject basis: 27 to 58%
  Reduction in Cτ on an individual subject basis: 53 to 82%
[3]; human, plasma, oral, DTG 50 mg once daily + CBZ 300 mg twice daily, day 5 of period 3, n = 14
  half-life: 7.31 h
[3]; human, plasma, oral, DTG 50 mg once daily alone, day 5 of period 1, n = 16, read-out: Cmax of plasma DTG, geometric mean (CV%)
  Cmax: 4160 ng/mL
[3]; human, plasma, oral, DTG 50 mg once daily alone, day 5 of period 1, n = 16
  half-life: 12.9 h
[3]; human, plasma, DTG 50 mg once daily alone, day 5 of period 1, oral with moderate-fat meal, healthy subjects, n = 16, read-out: AUC(0-τ) of plasma DTG, geometric mean (CV%)
  AUC: 53800 ng·h/mL
[1]; DTG alone and co-administered with CBZ, healthy subjects
  Tolerability: well tolerated
[1]; healthy subjects
  Subjects who experienced at least one AE: No subjects experienced AEs
  Drug-related adverse events: ALT increased: 0 n (%)
  Drug-related adverse events: Any event: 0 n (%)
  Drug-related adverse events: Asthenia: 0 n (%)
  Drug-related adverse events: Cognitive disorder: 0 n (%)
  Drug-related adverse events: Drug reaction with eosinophilia and systemic symptoms: 0 n (%)
  Drug-related adverse events: Fatigue: 0 n (%)
  Drug-related adverse events: Headache: 0 n (%)
  Drug-related adverse events: Hyponatremia: 0 n (%)
  Drug-related adverse events: Leukopenia: 0 n (%)
  Drug-related adverse events: Lymphopenia: 0 n (%)
  Drug-related adverse events: Nausea: 0 n (%)
  Drug-related adverse events: Pain in extremity: 0 n (%)
  Drug-related adverse events: Photosensitivity reaction: 0 n (%)
  Drug-related adverse events: Pyrexia: 0 n (%)
  Drug-related adverse events: Rash maculopapular: 0 n (%)
  Drug-related adverse events: Thirst: 0 n (%)
  Drug-related adverse events: Thrombocytopenia: 0 n (%)
[4]
  Reduction of DTG AUC(0-τ): 36 to 49%
  Reduction of DTG Cτ: 72 to 76%
[5]
  Component of metabolism via CYP3A4: approximately 10%
[6]
  Substrate of P-gp: substrate of P-glycoprotein
[7]
  Direct inhibition of CYP isozymes: minimal or no direct inhibition
[8]
  Direct inhibition of UGT1A1: minimal or no direct inhibition
[9]
  Direct inhibition of UGT2B7: minimal or no direct inhibition
[10]
  Direct inhibition of P-gp: minimal or no direct inhibition
[11]
  Direct inhibition of breast cancer resistance protein: minimal or no direct inhibition
[12]
  Direct inhibition of OATP1B1: minimal or no direct inhibition
[13]
  Direct inhibition of OATP1B3: minimal or no direct inhibition
[14]
  Direct inhibition of MRP2: minimal or no direct inhibition
[15]
  Induction of CYP1A2: not an inducer
[16]
  Induction of CYP2B6: not an inducer
[17]
  Induction of CYP3A4: not an inducer
[18]
  Effect on midazolam exposure: no significant effect
